The values below come from patent US8188059B2, “Compounds and methods for modulating expression of GCGR” (Isis Pharmaceuticals, Inc., priority 2006, dated 2012).

Strand notation (5' to 3'): a small letter for the sugar, then the base; units joined by * are phosphorothioate-linked, units joined directly phosphodiester-linked; [ ] holds rarer units or linkages, { } end groups; capitals alone tell only the bases. e = 2'-O-(2-methoxyethyl) (MOE); [5mC] = 5-methylcytosine; d = 2'-deoxy (DNA)

The subject of this data set is GCGR mRNA. The experiment in a line: GCGR mRNA levels in liver and estimated ED50, C57/BL6 mice, single i.p. dose (Example 5, Tables 44, 45). It is filed as in vivo, mouse. On the procedure: Eight-week old male C57/BL6 mice (Jackson Laboratory, Bar Harbor, Me.) were administered a single dose of GCGR antisense compound by intraperitonel (i.p.) injection at a concentration of 10, 3.2, 1, and 0.32 μmol·kg. Each dose group consisted of four animals. Shown in Table 43 are the sequences, motifs and conjugates of the GCGR antisense compounds used in this study. Bolded residues indicate 2′-O-methoxyethyl (2′-MOE) modifications and the italicized residues indicate methyleneoxy (4′-CH2—O-2′) BNA modifications. All antisense compounds comprise phosphorothioate internucleoside linkages throughout and each cytosine is replaced with 5-methylcytosine. GCGR antisense compounds target published GCGR nucleic acids, including Genbank Accession No. BC031885.1 (SEQ ID NO: 7).
To determine whether the phenotypic changes shown above correlated with a decrease in GCGR mRNA, treated animals were evaluated for levels of target mRNA in liver by RT, real time PCR according to methods described herein. Table 44 show results from direct comparisons of the antisense compounds targeting GCGR nucleic acid for their effect on target expression. Results are expressed as percent of saline control.

For the substance “148364 (antisense eT*eG*e[5mC]*eA*e[5mC]*dT*dT*dT*dG*dT*dG*dG*dT*dA*d[5mC]*e[5mC]*eA*eA*eG*eG) [compound 148364]”, the “GCGR mRNA levels in liver” value runs as follows: (0.32 μmol/kg single i.p.) 105% of saline control; (1 μmol/kg single i.p.) 106% of saline control; (3.2 μmol/kg single i.p.) 73% of saline control; (10 μmol/kg single i.p.) 38% of saline control.
